Source: ChEMBL document CHEMBL1158757, “Ophiocerins A-D and ophioceric acid: tetrahydropyran derivatives and an africane sesquiterpenoid from the freshwater aquatic fungus Ophioceras venezuelense” (J Nat Prod, 2005)
The source made the active and inactive calls.

Columns and labels:
Assay type in all cases: functional, organism-based
Staphylococcus aureus = test: Antibacterial activity against Staphylococcus aureus at 200 ug/disk
Candida albicans = test: Antifungal activity against Candida albicans at 200 ug/disk
Escherichia coli = test: Antimicrobial activity against Escherichia coli at 200 ug/disk

Measured: Activity

C[C@@H]1C[C@@H](O)[C@H](O)CO1
inactive: all assays above

C[C@@H]1C[C@@H](O)[C@@H](O)CO1
inactive: all assays above

C/C=C\C(=O)O[C@@H]1[C@H](O)[C@@H](O)CO[C@@H]1C
inactive: all assays above

C[C@@H]1C[C@H](O)[C@@H](O)CO1
inactive: all assays above

CC1=C2CC(C)(C)C[C@H]3C[C@@]3(C(=O)O)[C@@H]2CC1=O
inactive: all assays above
